Measurements reported in a melting point compilation (Tetko et al.; mined from patent text by program, amines drawn as free bases though some values may be those of a salt).

First: COC(=O)C1=C(C)NC(=S)N(S(C)(=O)=O)C1c1cccc([N+](=O)[O-])c1 (stereo not given)
Second: Cc1[nH]c(=S)n(Nc2cccc([N+](=O)[O-])c2)c1-c1ccccc1
The melting point of the first is lower: 188 to 190 °C for the first, 214 °C for the second.

First: CCCc1cccc(=O)[nH]1
Second: COc1cccc(CCCC(=O)O)c1C
The melting point of the first is lower: 89 to 90 °C for the first, 105 to 107 °C for the second.

Compared with CCCn1nc(C)c(C(=O)O)c1Cc1ccc(-c2ccccc2-c2nnn[nH]2)cc1, CC(=O)Oc1ccccc1-c1ccc(C(C)=O)cc1 is lower in melting point: 240 to 242 °C for the first, 116 to 117 °C for the second.

First: C#CCNC(=O)N1CC(Oc2ccc(Br)cc2)C1
Second: CCOC(=O)N[C@@H]1CCc2ccccc2[C@H]1Cl (relative stereo)
The melting point of the first is lower: 120 to 122 °C for the first, 124 to 126 °C for the second.

Compared with COc1cc(Cl)nc(NC(=O)NS(=O)(=O)c2ccccc2OC(Cl)=CCl)n1, CC(C)(C)OC(=O)NCCCCNC1(c2ccccc2Cl)C(=O)Nc2ccc(Cl)cc21 (stereo not given) is lower in melting point: 196 to 198 °C for the first, 175 to 176 °C for the second.

Compared with CC(C)n1nc(-c2sc(NC(=O)N(C)C)nc2-c2ccccc2)ccc1=O, CCOC(=O)/C=C/c1cn(Cc2ccc(OCc3csc(-c4ccccc4)n3)cc2)nc1-c1cccs1 is lower in melting point: 199 to 200 °C for the first, 104 to 105 °C for the second.

First: COc1ccc(C(=O)Nc2ccc(F)cc2)cc1NS(=O)(=O)c1ccc(C#N)cc1
Second: Cc1ccc(Oc2ccc(C(=O)O)cc2)cc1
The melting point of the first is lower: 131 to 135 °C for the first, 175 °C for the second.

First: O=[N+]([O-])c1cc2c(Nc3ccc(F)c(Cl)c3)ncnc2cc1OC1CCCC1
Second: O=C(O)COc1ccc(Cl)cc1-c1ccc(C(=O)N2CCCC2)c(C(F)(F)F)c1
The melting point of the first is higher: 230 °C for the first, 197 to 198 °C for the second.

First: COC(=O)c1sc2c(c1N=C1CCCN1C)c1ccccc1c(=O)n2-c1ccccc1C
Second: CCc1nc(OC)c(NC(=O)N2CCN(c3cccc(F)c3)CC2)cc1C(=O)Nc1cc(CO)cc(Nc2c3ccccc3nc3ccccc23)c1
The melting point of the first is higher: 209 to 211 °C for the first, 186 to 188 °C for the second.

Compared with COC(=O)c1c(C)c([N+](=O)[O-])cc2nc(Cl)c(Cl)nc12, COc1ccc(C(=O)O)c(Cl)c1Cl is higher in melting point: 155 to 157 °C for the first, 224 to 226 °C for the second.

Compared with COc1ccnc(-c2ccccc2S(=O)c2nc3cc(N)ccc3[nH]2)c1 (stereo not given), COc1ccc(-c2nc3ccc(-n4cncn4)cc3[nH]2)cc1OC(C)C is lower in melting point: 192 to 193 °C for the first, 118 to 126 °C for the second.

Compared with CCCCCCCCCCCCOc1ccc(C(=O)c2ccc(Cl)cc2)c(O)c1, OCC(O)COCCCCCCCCOc1ccc(-c2ccccc2)cc1 (stereo not given) is higher in melting point: 61 to 63 °C for the first, 94 to 96 °C for the second.

First: COC=Nc1cc(-c2ncon2)nn1-c1c(Cl)cc(C(F)(F)F)cc1Cl
Second: OC(c1cc(F)ccc1F)c1cc(Cl)ncc1Cl (stereo not given)
The melting point of the first is lower: 113 to 114 °C for the first, 160 to 161 °C for the second.

Compared with COC(=O)c1ccc(CN2CCOc3cc4c(cc32)C(C)(C)CCC4(C)C)cc1, CC(C)Oc1ccc2c(c1)N(C)C(=O)N(c1ccc(CC(=O)O)cc1)S2(=O)=O is higher in melting point: 187 °C for the first, 232 to 233 °C for the second.

First: CN(C)S(=O)(=O)c1ccc2c(c1)CC(Br)C2=O (stereo not given)
Second: Cc1cc2[nH]c(=O)n(S(=O)(=O)c3ccc(Cl)cc3)c(=O)c2cc1C
The melting point of the first is lower: 115 °C for the first, 221 to 222 °C for the second.

Cc1cccc(C)c1C(=O)n1cc(F)c(N=CN(C)C)nc1=O and COc1cc2ccn(C(=O)c3ccc(-c4ccc(-c5noc(C)n5)cc4C)cc3)c2cc1OCCN(C)C cannot be ordered by melting point: 120 to 150 °C for the first, 130 to 131 °C for the second.

Going from CN(C)c1ccc(C=Cc2ccc(N)cc2)cc1 to CCOC(=O)COc1ccc(C(=O)c2ccoc2)c2ccccc12, the melting point falls from 168 °C to 103 °C.

First: Oc1ccc(C(O)(c2ccccc2)C(CCCCl)c2ccccc2)cc1 (stereo not given)
Second: O=C1NN(C(=O)Oc2ccc(Cl)cc2)C(c2ccccc2)C1c1ccccc1 (stereo not given)
The melting point of the first is lower: 75 to 78 °C for the first, 175 to 177 °C for the second.

First: Fc1ccc(C(C(Br)c2ccccc2)C(F)(F)F)cc1 (stereo not given)
Second: CC(C)n1c(SC(F)(F)C(F)F)nc(-c2ccc(F)cc2)c1-c1ccc(F)cc1
The melting point of the first is higher: 144 to 146 °C for the first, 94 to 103 °C for the second.

First: Oc1nc2ccnn2c2ncccc12
Second: CCc1ncnc2cc(O)c(OC)cc12
The melting point of the first is higher: > 300 °C for the first, 210 to 215 °C for the second.

Cc1nn(-c2nnc(S)n2N)c2c1CCCC2 and CC(=O)N1CCN(CCc2ccc(-c3cccc(N)n3)cc2)CC1 cannot be ordered by melting point: 201 to 202 °C for the first, 201 to 203 °C for the second.

Compared with Cn1ncnc1COc1nn2c(-c3ccccc3F)nnc2cc1C1CC(F)(F)C1, Fc1ccccc1-c1noc2c(Cl)c(OCCBr)ccc12 is lower in melting point: 178 °C for the first, 131 to 132 °C for the second.

Compared with CC(C)n1nc(O)nc1Cl, CC(C)(CC(O)(Cn1cc(Cl)c(=O)c2cnccc21)C(F)(F)F)c1cccc2c1OCC2 (stereo not given) is higher in melting point: 100 to 104 °C for the first, 158 to 160 °C for the second.

First: CC(=O)C(O)C1OC(n2cc(Br)c(=O)[nH]c2=O)CC1N=[N+]=[N-] (stereo not given)
Second: CON=C(C(=O)N[C@@H]1C(=O)N[C@@H]1C(=O)N(C)C)c1csc(NC(=O)CCl)n1 (relative stereo)
The melting point of the first is lower: 112 to 114 °C for the first, 160 to 165 °C for the second.

Compared with Fc1ccc2c(CN3CCN(CCc4ccccc4)CC3)n[nH]c2c1, O=C(NCCCN1CCN(Cc2ccc(Cl)cc2)CC1)NC1CCCCC1 is lower in melting point: 148 to 149 °C for the first, 109 to 112 °C for the second.
